Where two headings read alike, the source gives them in different places.
Legend:
[1] = tested on: Sarcina lutea 8340; experiment: Human bacteria MIC; format: cell-based
Experimental: The values were determined by serial dilutions in nutrient agar with 5% chocolated horse blood after incubations for 18 hours at 37° C.

[2] = in vivo; conditions: mouse, 50 mg/kg
[3] = Mean serum concentrations in neonatal piglets after intramuscular or oral administration; format: in vivo; conditions: pig, 50 mg/kg; for concentration at 40 min: 40° (printed)
Experimental: Blood levels were assessed in neonatal piglets (2 to 4 animals per group and mean bodyweights about 2 kg). The dose was 50 mg/kg (dose solution=25 mg/ml in 25% ethanol). Doses were given by intramscular injection and orally by stomach tube. Piglets were beld at intervals up to 6 and at 24 hours, serum assayed microbiologically (B. subtilis ATCC 6633).

[4] = Micrococcus luteus, Sarcina lutea 8340, nutrient agar, 5% chocolated horse blood, 18 hours 37° C., read-out: M.I.C.

Q: With `C/C(=C\C(=O)OCCCC(=NO)c1cccs1)C[C@@H]1OC[C@H](C[C@@H]2O[C@H]2[C@@H](C)[C@H](C)O)[C@@H](O)[C@H]1O` [Example 4, 4-Hydroxyimino-4-(2-thienyl)butyl monate A] as the compound, how does the MIC [1, 4] read?
A: > 100 µg/mL

Q: With `C/C(=C\C(=O)OC1CCC(=NO)CC1)C[C@@H]1OC[C@H](C[C@@H]2O[C@H]2[C@@H](C)[C@H](C)O)[C@@H](O)[C@H]1O` (stereo partly drawn) [Example 3, 4-Hydroxyiminocyclohexyl monate A] as the compound, how does the MIC [1, 4] read?
A: > 100 µg/mL

Q: What about the concentration at 5 min ([2]; po) of the same compound?
A: 3500 ng/mL

Q: And the concentration at 10 min ([2]; po)?
A: 3500 ng/mL

Q: And the concentration at 20 min ([2]; po)?
A: 2200 ng/mL

Q: And the concentration at 0.5 h ([2]; po)?
A: 1900 ng/mL

Q: What about the concentration at 0.75 h ([2]; po) of the same compound?
A: 1600 ng/mL

Q: And the concentration at 1 h ([2]; po)?
A: 800 ng/mL

Q: What about the concentration at 1.5 h ([2]; po) of the same compound?
A: 600 ng/mL

Q: What about the concentration at 5 min ([2]; sc) of the same compound?
A: 20600 ng/mL

Q: And the concentration at 10 min ([2]; sc)?
A: 23000 ng/mL

Q: What about the concentration at 20 min ([2]; sc) of the same compound?
A: 16600 ng/mL

Q: What about the concentration at 0.5 h ([2]; sc) of the same compound?
A: 7900 ng/mL

Q: What about the concentration at 0.75 h ([2]; sc) of the same compound?
A: 2900 ng/mL

Q: And the concentration at 1 h ([2]; sc)?
A: 1500 ng/mL

Q: And the concentration at 1.5 h ([2]; sc)?
A: 300 ng/mL

Q: For `C/C(=C\C(=O)OCCCCCC=NN(C)C)C[C@@H]1OC[C@H](C[C@@H]2O[C@H]2[C@@H](C)[C@H](C)O)[C@@H](O)[C@H]1O` [Example 6, 6-Dimethylhydrazonohexyl monate A], which MIC ([1]; Micrococcus luteus, 8340, 18 h) is on record?
A: > 100 µg/mL

Q: And the concentration at 5 min ([2]; po)?
A: 3400 ng/mL

Q: What about the concentration at 10 min ([2]; po) of the same compound?
A: 3400 ng/mL

Q: What about the concentration at 20 min ([2]; po) of the same compound?
A: 680 ng/mL

Q: What about the concentration at 0.5 h ([2]; po) of the same compound?
A: < 600 ng/mL

Q: And the concentration at 0.75 h ([2]; po)?
A: < 600 ng/mL

Q: And the concentration at 1 h ([2]; po)?
A: < 600 ng/mL

Q: And the concentration at 1.5 h ([2]; po)?
A: < 600 ng/mL

Q: What about the concentration at 5 min ([2]; sc) of the same compound?
A: 12100 ng/mL

Q: And the concentration at 10 min ([2]; sc)?
A: 14800 ng/mL

Q: And the concentration at 20 min ([2]; sc)?
A: 9700 ng/mL

Q: What about the concentration at 0.5 h ([2]; sc) of the same compound?
A: 6800 ng/mL

Q: What about the concentration at 0.75 h ([2]; sc) of the same compound?
A: 3800 ng/mL

Q: What about the concentration at 1 h ([2]; sc) of the same compound?
A: 2300 ng/mL

Q: What about the concentration at 1.5 h ([2]; sc) of the same compound?
A: < 600 ng/mL

Q: With `CON=C(CCCOC(=O)/C=C(\C)C[C@@H]1OC[C@H](C[C@@H]2O[C@H]2[C@@H](C)[C@H](C)O)[C@@H](O)[C@H]1O)c1ccccc1` [Example 5, 4-Methoxyimino-4-phenylbutyl monate A] as the compound, how does the MIC [1, 4] read?
A: > 100 µg/mL

Q: For `C/C(=C\C(=O)OCc1ccc(C=NO)o1)C[C@@H]1OC[C@H](C[C@@H]2O[C@H]2[C@@H](C)[C@H](C)O)[C@@H](O)[C@H]1O` [Example 7, 5-Hydroxyiminomethylfurfuryl monate A], which MIC ([1]; Micrococcus luteus, 8340, 18 h) is on record?
A: > 100 µg/mL

Q: Which concentration at 40 min ([3]; im) does the source give for `C/C(=C\C(=O)OCCCC(=NO)c1ccccc1)C[C@@H]1OC[C@H](C[C@@H]2O[C@H]2[C@@H](C)[C@H](C)O)[C@@H](O)[C@H]1O` [Example 1, 4-Hydroxyimino-4-phenylbutyl monate A] here?
A: 6300 ng/mL

Q: What about the concentration at 10 min ([3]; im) of the same compound?
A: 7000 ng/mL

Q: What about the concentration at 20 min ([3]; im) of the same compound?
A: 6700 ng/mL

Q: What about the concentration at 1 h ([3]; im) of the same compound?
A: 6600 ng/mL

Q: What about the concentration at 2 h ([3]; im) of the same compound?
A: 5200 ng/mL

Q: And the concentration at 3 h ([3]; im, 3h)?
A: 2900 ng/mL

Q: What about the concentration at 4 h ([3]; im, 4h) of the same compound?
A: 1700 ng/mL

Q: What about the concentration at 6 h ([3]; im, 6h) of the same compound?
A: < 900 ng/mL

Q: And the concentration at 40 min ([3]; po)?
A: 3300 ng/mL

Q: And the concentration at 10 min ([3]; po)?
A: 3000 ng/mL

Q: And the concentration at 20 min ([3]; po)?
A: 3000 ng/mL

Q: What about the concentration at 1 h ([3]; po) of the same compound?
A: 1200 ng/mL

Q: What about the concentration at 2 h ([3]; po) of the same compound?
A: < 1000 ng/mL

Q: What about the concentration at 5 min ([2]; po) of the same compound?
A: 1000 ng/mL

Q: What about the concentration at 10 min ([2]; po) of the same compound?
A: 790 ng/mL

Q: And the concentration at 20 min ([2]; po)?
A: 230 ng/mL

Q: What about the concentration at 0.5 h ([2]; po) of the same compound?
A: < 200 ng/mL

Q: And the concentration at 0.75 h ([2]; po)?
A: < 200 ng/mL

Q: And the concentration at 1 h ([2]; po)?
A: < 120 ng/mL

Q: What about the concentration at 1.5 h ([2]; po) of the same compound?
A: < 200 ng/mL

Q: And the concentration at 5 min ([2]; sc)?
A: 4400 ng/mL

Q: And the concentration at 10 min ([2]; sc)?
A: 6500 ng/mL

Q: And the concentration at 20 min ([2]; sc)?
A: 3100 ng/mL

Q: And the concentration at 0.5 h ([2]; sc)?
A: 1600 ng/mL

Q: What about the concentration at 0.75 h ([2]; sc) of the same compound?
A: 460 ng/mL

Q: And the concentration at 1 h ([2]; sc)?
A: 280 ng/mL

Q: And the concentration at 1.5 h ([2]; sc)?
A: < 200 ng/mL

Reference: patent US4362743A, “Antibacterial monic acid esters” (Beecham Group Limited, priority 1980, dated 1982)
